Assay results reported in patent publication US20070015759A1, “Metasubstituted thiazolidinones, their manufacture and use as a drug” (priority 2004, published 2007).

Experiments:
[1] = target: T1, Recombinant human Plk-1 (6×His) (Homo sapiens, UniProt P53350); assay: PLK enzyme assay (33P-γ-ATP incorporation into biotin casein, SPA beads); assay type: biochemical; conditions: 0.5 μM ATP, 0.7 μM casein, 90 minutes at room temperature, read-out: Inhibition PLK-1 IC50
T1 construct: 6xHis; made in house; host or cells: Hi5 insect cells, baculovirus
T1 sequence (P53350 whole entry): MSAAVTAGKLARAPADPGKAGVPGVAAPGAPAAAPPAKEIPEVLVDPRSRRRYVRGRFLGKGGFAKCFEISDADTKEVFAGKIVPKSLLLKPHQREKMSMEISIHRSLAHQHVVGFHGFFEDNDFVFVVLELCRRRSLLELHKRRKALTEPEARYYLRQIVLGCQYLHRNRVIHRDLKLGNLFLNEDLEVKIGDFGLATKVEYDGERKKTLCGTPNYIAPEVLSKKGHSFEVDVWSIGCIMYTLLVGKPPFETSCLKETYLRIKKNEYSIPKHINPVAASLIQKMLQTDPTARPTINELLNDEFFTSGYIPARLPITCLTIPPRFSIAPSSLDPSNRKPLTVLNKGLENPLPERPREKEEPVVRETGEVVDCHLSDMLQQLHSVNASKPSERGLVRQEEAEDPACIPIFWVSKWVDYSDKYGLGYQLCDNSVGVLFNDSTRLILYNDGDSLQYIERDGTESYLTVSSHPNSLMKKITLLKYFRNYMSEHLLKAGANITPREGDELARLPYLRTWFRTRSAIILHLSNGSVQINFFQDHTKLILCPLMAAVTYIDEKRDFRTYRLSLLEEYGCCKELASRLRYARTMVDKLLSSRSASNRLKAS
Method: Recombinant human Plk-1 (6×His) was purified from insect cells (Hi5) infected with a baculovirus.
10 ng (recombinant created, purified) PLK enzyme is incubated for 90 minutes at room temperature with biotin casein and 33P-γ-ATP as a sub-stratum in a volume of 15 μl in 384 well Greiner Small Volume Microtiterplates (final concentration in buffer: 660 ng/ ml PLK; 0.7 μM Casein, 0.5 μM ATP incl. 400 nCi/ml 33P-γ-ATP; 10 mM MgCl2, 1 mM MnCl2; 0.01% NP40; 1 mM DTT, Protease inhibitors; 0.1 mM Na2VO3 in 50 mM HEPES pH 7.5). At the end of the reaction a 5 μl stop solution (500 μM ATP; 500 mM EDTA; 1% triton ×100; 100 mg/ ml streptavidin coated SPA Beads in PBS) was added. After the microtiter plate is closed with foil, the beads are sedimented through centrifugation (10 min., 1500 rpm). The fixing of the 33P-γ-ATP in casein was set as a measure of the enzyme activity by β-Counting.
Test substances were introduced in various concentrations (0 μM, and in the range of 0.01-30 μM). The final concentration of the dimethylsulfoxide solvent in all concentrations amounted to 1.5%.

[2] = test system: human MaTu breast tumor cells; assay: Proliferation assay (crystal violet staining); assay type: cell-based; conditions: 96 h, incubated for 4 days with test substance, read-out: Inhibition of tumor cell proliferation (MaTu) IC50
Method: Cultivated human MaTu breast tumor cells were spread on plates to a thickness of 5000 cells per measuring point in a 96-hole multititerplate in 200 μl of the appropriate growth medium. After 24 hours the cells of one plate (the zero-point plate) were stained with crystal violet (see below), while the medium of the other plates was replaced by fresh culture medium (200 μl), to which was added the test substances in various concentrations (0 μM and in the range of 0.01 to 30 μm; the final concentration of the dimethylsulfoxide solvent was 0.5%). The cells were incubated for 4 days in the presence of the test substances. The cell proliferation was determined by the staining of the cells with crystal violet. The cells were fixed by the addition of 20 μl per measuring point of an 11% glutaraldehyde solution for 15 minutes at room temperature. After the fixed cells were washed three times with water, the plates were dried at room temperature. The cells were stained by the addition of 100 μl per measuring point of a 0.1% crystal violet solution (pH set at pH3 through the addition of acetic acid). After the fixed cells were washed three times with water, the plates were dried at room temperature. The coloring was dissolved by the addition of 100 μl per measuring point of a 10% acetic acid solution. Extinction was determined photometrically at a wave length of 595 nm. The percentage change of the cell growth was calculated by normalizing the measured values at the extinction value of the zero-point plate (=0%) and the extinction of the untreated cells (0 μM) (=100%).

| IC50 [1] [nM] | IC50 [2] [nM] | Compound |
| --- | --- | --- |
| 71 | 1700 | C#CCNC(=O)C(C#N)=c1sc(=CNc2ccc(OCCN(C)C)cc2)c(=O)n1CC [Comparison 307 from PCT/EP2004/ 012242, reference compound] |
| 140 | 2500 | C#CCNC(=O)C(C#N)=c1sc(=CNc2ccc(C(=O)NCCN3CCCC3)c(NC(=O)C(C)(C)C)c2)c(=O)n1CC [Comparison 323 from PCT/EP2004/ 012242, reference compound] |
| 24 | 330 | CCn1c(=C(C#N)C(=O)NCC(F)F)sc(=CNc2cccc(OCCN(C)C)c2)c1=O (mixture of isomers) [Example 127, 2-Cyano-N-(2,2-difluoro-ethyl)-2-[5-[1-[3-(2-dimethylamino-ethoxy)-phenylamino]-meth-(E/Z)-ylidene]-3-ethyl-4-oxo-thiazolidin-(2-(E or Z))-ylidene]-acetamide] |
| 16 | 200 | CCn1c(=C(C#N)C(=O)NCC(F)(F)F)sc(=CNc2cccc(CCN3CCCC3)c2)c1=O (mixture of isomers) [Example 30, 2-Cyano-2-[3-ethyl-4-oxo-5-[1-[3-(2-pyrrolidin-1-yl-ethyl)-phenylamino]-meth-(E/Z)-ylidene]-thiazolidin-(2-(E or Z))-ylidene]-N-(2,2,2-trifluoro-ethyl)-acetamide] |
| 100 | 650 | C#CCNC(=O)C(C#N)=c1sc(=CNc2ccc(F)c(NC(=O)C(C)(C)C)c2)c(=O)n1CC (mixture of isomers) [Example 63, 2-Cyano-2-[5-[1-[3-(2,2-dimethyl-propionylamino)-4-fluoro-phenylamino]-meth-(E/Z)-ylidene]-3-ethyl-4-oxo-thiazolidin-(2-(E or Z))-ylidene]-N-prop-2-ynyl-acetamide] |
|  | 2800 | CCn1c(=C(C#N)C(=O)NCC(F)(F)F)sc(=CNc2ccc(CCN3CCCC3)cc2)c1=O [Comparison 527 from PCT/EP2004/ 012242, reference compound] |
| 22 | 590 | C#CCNC(=O)C(C#N)=c1sc(=CNc2cccc(OCCN(C)C)c2)c(=O)n1CC (mixture of isomers) [Example 126, 2-Cyano-2-[5-[1-[3-(2-dimethylamino-ethoxy)-phenylamino]-meth-(E/Z)-ylidene]-3-ethyl-4-oxo-thiazolidin-(2Z or E)-ylidene]-N-prop-2-ynyl-acetamide] |
| 150 | 780 | CCNC(=O)C(C#N)=c1sc(=CNc2cccc(NC(=O)CN3CCCC3)c2)c(=O)n1CC (mixture of isomers) [Example 55, 2-Cyano-N-ethyl-2-[3-ethyl-4-oxo-5-[1-[3-(2-pyrrolidin-1-yl-acetylamino)-phenylamino]-meth-(E/Z)-ylidene]-thiazolidin-(2-(E or Z))-ylidene]-acetamide] |
| 74 | 5600 | CCn1c(=C(C#N)C(=O)NCC(F)F)sc(=CNc2ccc(OCCN(C)C)cc2)c1=O [Comparison 310 from PCT/EP2004/ 012242, reference compound] |
| 73 | 1600 | CCn1c(=C(C#N)C(=O)NCC(F)(F)F)sc(=CNc2ccc(C(=O)NCCN3CCCC3)c(NC(=O)C(C)(C)C)c2)c1=O [Comparison 326 from PCT/EP2004/ 012242, reference compound] |
| 20 | 830 | CCn1c(=C(C#N)C(=O)NCC(F)(F)F)sc(=CNc2cccc(NC(=O)C(C)(C)C)n2)c1=O (mixture of isomers) [Example 41, 2-Cyano-2-[5-[1-[6-(2,2-dimethyl-propionylamino)-pyridin-2-ylamino]-meth-(E/Z)-ylidene]-3-ethyl-4-oxo-thiazolidin-(2-(E or Z))-ylidene]-N-(2,2,2-trifluoro-ethyl)-acetamide] |
